Results taken from PMC4402028 (Journal of Clinical Pharmacology, 2015).
“And” between values parts separate entries of the source, which are not always exact repeats. Identical values can stand only once. Like-named read-outs stand apart in the source and are kept apart here.

Columns and labels:
[1] = format: in vivo, human; conditions: for AUC(0–inf), Ratio (%) of Geometric LS Means: all profiles with estimable elimination rates; for CL renal: plasma and urine, CLr; for Vd/F: Vz/F
Safety and tolerability = format: in vivo, human
[2] = Allometric PK scaling of CLTOT to human
[3] = Semiphysiological integrated PK/ADME model; set-up: species or system human; conditions: for clearance: oral
[4] = humans; single 300 mg radiolabeled dose; ref data on file at Furiex; cited from earlier work
[5] = in vitro or in vivo, except slow formation of a glucuronide found in human urine after 1,000 mg oral dose; ref data on file at Furiex; cited from earlier work
[6] = ref data on file at Furiex; cited from earlier work
Caco2 cell-line = conditions: ref data on file at Furiex; cited from earlier work
OAT1 [7] = conditions: in vitro; ref data on file at Furiex; cited from earlier work
OCT1 [8] = conditions: in vitro; ref data on file at Furiex; cited from earlier work
OCT2 [9] = conditions: in vitro; ref data on file at Furiex; cited from earlier work
OATP1B3 [10] = conditions: in vitro; ref data on file at Furiex; cited from earlier work
P-gp = conditions: in vitro; ref data on file at Furiex; cited from earlier work
BCRP [11] = conditions: in vitro; ref data on file at Furiex; cited from earlier work
MRP2 [12] = conditions: in vitro; ref data on file at Furiex; cited from earlier work
BCRP [13] = conditions: in vitro; ref data on file at Furiex; cited from earlier work; remark: listed apart in the source
BSEP = conditions: in vitro; ref data on file at Furiex; cited from earlier work
MRP2 [14] = conditions: in vitro; ref data on file at Furiex; cited from earlier work; remark: listed apart in the source
OCT1 [15] = conditions: in vitro; ref data on file at Furiex; cited from earlier work; remark: listed apart in the source
OCT2 [16] = conditions: in vitro; ref data on file at Furiex; cited from earlier work; remark: listed apart in the source
OAT1 [17] = conditions: in vitro; ref data on file at Furiex; cited from earlier work; remark: listed apart in the source
OAT3 = conditions: in vitro; ref data on file at Furiex; cited from earlier work
OATP1B3 [18] = conditions: in vitro; ref data on file at Furiex; cited from earlier work; remark: listed apart in the source
CYP-450s = conditions: in vitro; ref data on file at Furiex; cited from earlier work
[19] = Rat; IV 10 mg/kg; ref Furiex Studies DD7393, FK10138, FK10141, and FK10142; cited from earlier work
[20] = Cynos; IV 10 mg/kg; ref Furiex Studies DD7393, FK10138, FK10141, and FK10142; cited from earlier work
[21] = Rhesus; IV 3.2 mg/kg; ref Furiex Studies DD7393, FK10138, FK10141, and FK10142; cited from earlier work
[22] = Dog; IV 2 mg/kg; ref Furiex Studies DD7393, FK10138, FK10141, and FK10142; cited from earlier work
[23] = plasma protein binding; model input, source not stated; cited from earlier work
MRP2 [24] = conditions: read-out: Ki for MRP2; cited from earlier work
[25] = both, human, plasma, oral, eluxadoline 100 mg plus cyclosporine 600 mg, arithmetic mean (CV), n = 19
[26] = both, human, plasma, oral, eluxadoline 100 mg plus probenecid 500 mg, arithmetic mean (CV), n = 20
[27] = coadministered with probenecid vs eluxadoline alone
[28] = human, reference case without inhibitor, estimated
[29] = in the presence of cyclosporine

In the case of `COc1ccc(CN(C(=O)[C@@H](N)Cc2c(C)cc(C(N)=O)cc2C)[C@@H](C)c2ncc(-c3ccccc3)[nH]2)cc1C(=O)O` [eluxadoline], the “Cmax, Ratio (%) of Geometric LS Means” value ([1]; B/A: with cyclosporine 600 mg vs eluxadoline alone) is reported as 6.18%, the “AUC(0–inf), Ratio (%) of Geometric LS Means” value ([1]; B/A: with cyclosporine vs alone) is reported as 4.25% and the “Cmax, Ratio (%) of Geometric LS Means” value ([1]; C/A: with probenecid 500 mg vs eluxadoline alone) is reported as 1.31%. For the same molecule, the “AUC(0–inf), Ratio (%) of Geometric LS Means” value ([1]; C/A: with probenecid vs alone) was 1.48%, the CL renal ([1]; both, human, oral, eluxadoline 100 mg plus cyclosporine 600 mg, arithmetic mean (CV)) was 96.7 mL/min and the CL renal ([1]; both, human, oral, eluxadoline 100 mg plus probenecid 500 mg, arithmetic mean (CV)) was 61.7 mL/min. For the same molecule, the Tmax ([1]; both, human, plasma, oral, 100 mg) was 2.1 h, the AUC(0-inf) ([1]; both, human, plasma, oral, 100 mg, Geometric LS Means, Treatment A, all profiles with estimable elimination rates (N 20)) was 14.7 ng·h/mL and the AUC(0-inf) ([1]; both, human, plasma, oral, 100 mg, Geometric LS Means, Treatment A, only subjects with estimable elimination rates for all 3 treatments (N 7)) was 15.7 ng·h/mL. For the same molecule, the AUC(0-inf) ([1]; both, human, plasma, oral, Geometric LS Means, Treatment B (+ cyclosporine 600 mg), all profiles with estimable elimination rates (N 19)) was 62.6 ng·h/mL, the AUC(0-inf) ([1]; both, human, plasma, oral, Geometric LS Means, Treatment B (+ cyclosporine 600 mg), only subjects with estimable elimination rates for all 3 treatments (N 7)) was 79.9 ng·h/mL and the AUC(0-inf) ([1]; both, human, plasma, oral, Geometric LS Means, Treatment C (+ probenecid 500 mg), all profiles with estimable elimination rates (N 20)) was 21.8 ng·h/mL. For the same molecule, the AUC(0-inf) ([1]; both, human, plasma, oral, Geometric LS Means, Treatment C (+ probenecid 500 mg), only subjects with estimable elimination rates for all 3 treatments (N 7)) was 20.4 ng·h/mL, the AUC(0-inf) [1, 25] was 75.3 ng·h/mL and the AUC(0-inf) [1, 26] was 23 ng·h/mL. It also gave a Cmax ([1]; both, human, plasma, oral, eluxadoline 100 mg plus cyclosporine 600 mg, arithmetic mean (CV), N = 30) of 20.9 ng/mL, a Cmax ([1]; both, human, plasma, oral, eluxadoline 100 mg plus probenecid 500 mg, arithmetic mean (CV), N = 29) of 3.6 ng/mL and a Vd/F [1, 25] of 20700 L. It also gave a Vd/F [1, 26] of 37100 L, a half-life ([1]; both, human, plasma, oral, t1/2, eluxadoline 100 mg plus cyclosporine 600 mg, arithmetic mean (CV), n = 19) of 7.4 h and a half-life ([1]; both, human, plasma, oral, t1/2, eluxadoline 100 mg plus probenecid 500 mg, arithmetic mean (CV), n = 20) of 5.1 h. The “effect on renal clearance (CLren) of eluxadoline” value ([1]; by cyclosporine) was “little effect”, the “reduction of renal clearance (CLren)” value ([1]; by probenecid) was about 50% and the “increase in AUC(0–inf), geometric mean ratio” value ([1]; coadministered with cyclosporine vs alone, subjects with estimable elimination rates for all 3 treatments) was 5.1 fold. For the same molecule, the “increase in peak exposure (Cmax)” value ([1]; coadministered with cyclosporine vs eluxadoline alone) was 6.2 fold, the “increase in peak exposure (Cmax)” value [1, 27] was 1.3 fold and 1.31 fold and the “increase in systemic/total exposure [AUC(0–inf)]” value [1, 27] was 1.30 fold and 1.3 fold. For the same molecule, the “CLren, mean (CV%)” value ([1]; eluxadoline 100 mg alone) was 116 (20%) mL/min and 116 mL/min, the “%Fe(0–72), cumulative urinary excretion over 72 hours as fraction of the dose” value ([1]; eluxadoline 100 mg alone, arithmetic mean (CV)) was 0.12% and the “%Fe(0–72), cumulative urinary excretion over 72 hours as fraction of the dose” value ([1]; eluxadoline 100 mg alone, arithmetic mean (CV), listed as Eluxadoline) was 0.12 (52) %. For the same molecule, the CL/F ([1]; eluxadoline 100 mg alone, arithmetic mean (CV), n = 20) was 7550 (54) L/h, the “%Fe(0–72), cumulative urinary excretion over 72 hours as fraction of the dose” value ([1]; eluxadoline 100 mg plus cyclosporine 600 mg, arithmetic mean (CV)) was 0.46% and the CL/F ([1]; eluxadoline 100 mg plus cyclosporine 600 mg, arithmetic mean (CV), n = 19) was 1943 (69) L/h. The “%Fe(0–72), cumulative urinary excretion over 72 hours as fraction of the dose” value ([1]; eluxadoline 100 mg plus probenecid 500 mg, arithmetic mean (CV)) was 0.08%, the “%Fe(0–72), cumulative urinary excretion over 72 hours as fraction of the dose” value ([1]; eluxadoline 100 mg plus probenecid 500 mg, arithmetic mean (CV), listed as Eluxadoline) was 0.08 (39) % and the CL/F ([1]; eluxadoline 100 mg plus probenecid 500 mg, arithmetic mean (CV), n = 20) was 5645 (53) L/h. For the same molecule, the Tmax ([1]; eluxadoline 100 mg plus probenecid 500 mg, median (minimum, maximum)) was 2.5 (0.25, 6.0) hours, the “CLren, mean (CV%)” value ([1]; in the presence of cyclosporine 600 mg) was 97 (19%) mL/min and 97 mL/min and the “CLren, mean (CV%)” value ([1]; in the presence of probenecid 500 mg) was 62 (25%) mL/min and 62 mL/min. For the same molecule, the “fraction of the eluxadoline dose excreted in urine unchanged (%Fe)” value ([1]; with or without cyclosporine and probenecid) was “less than 1%”, the nausea (Safety and tolerability; after eluxadoline alone) was “not reported” and the “subjects reporting gastrointestinal AEs” value (Safety and tolerability; after eluxadoline alone (1 subject)) was 3%. The “subjects reporting AEs” value (Safety and tolerability; after eluxadoline alone (2 subjects)) was 7%, the subjects reporting nausea (Safety and tolerability; after eluxadoline combined with cyclosporine (3 subjects)) was 10.0% and the “subjects reporting gastrointestinal AEs” value (Safety and tolerability; after eluxadoline combined with probenecid (2 subjects)) was 7%. For the same molecule, the “subjects reporting gastrointestinal AEs” value (Safety and tolerability; after eluxadoline in combination with cyclosporine (4 subjects)) was 13%, the “subjects reporting AEs” value (Safety and tolerability; after eluxadoline in combination with cyclosporine (6 subjects)) was 20% and the subjects reporting nausea (Safety and tolerability; after eluxadoline with probenecid (1 subject)) was 3%. The clearance [2] was 12.6 mL/min/kg and 949 mL/min, the “PK-ADME-model-predicted AUC(0–inf)” value ([3]; eluxadoline alone) was 17.8 ng·h/mL and the “renal excretion as share of overall elimination” value ([3]; human) was 12%. It also gave a clearance ([3]; human, plasma, 200 mg, biliary clearance (CLbil), without inhibitor, estimated) of 832 mL/min, a clearance ([3]; human, plasma, 200 mg, net tubular secretion clearance CLTS, without inhibitor, estimated) of 459 mL/min and a bioavailability ([3]; human, plasma, po, 200 mg) of 1.02%. For the same molecule, the “FGI (extent of GI absorption/GI permeability)” value [3, 28] was 2.3%, the “hepatic extraction ratio (ERhep)” value [3, 28] was 55.8% and the “intrinsic biliary CLint” value ([3]; human, without inhibitor, estimated) was 9,370 mL/min. For the same molecule, the CLbil [3, 29] was 296 mL/min, the Foral [3, 29] was 1.82% and the “reduction of CLTS” value [3, 29] was 24%. The “reduction of biliary CLint” value [3, 29] was 71%, the CLbil ([3]; in the presence of probenecid) was 750 mL/min and the Foral ([3]; in the presence of probenecid) was 1.15%. The “reduction of CLTS” value ([3]; in the presence of probenecid) was 52%, the “reduction of biliary CLint” value ([3]; in the presence of probenecid) was 21% and the “PK-ADME-model-predicted AUC(0–inf)” value ([3]; with cyclosporine) was 78.3 ng·h/mL. For the same molecule, the “model-predicted CLren” value ([3]; with cyclosporine) was 92 mL/min, the “PK-ADME-model-predicted AUC(0–inf)” value ([3]; with probenecid) was 23.6 ng·h/mL and the “model-predicted CLren” value ([3]; with probenecid) was 62 mL/min. The circulating metabolites [4] was “no circulating metabolites were detected”, the hepatic drug metabolism [5] was “absence of hepatic drug metabolism” and the GI solubility [6] was “high”. For the same molecule, the Caco2 cell-line permeability (Caco2 cell-line) was “poor”, the “transport by OAT1” value (OAT1 [7]) was “not to be transported” and the “transport by OCT1” value (OCT1 [8]) was “not to be transported”. The “transport by OCT2” value (OCT2 [9]) was “not to be transported”, the “transport by OATP1B3” value (OATP1B3 [10]) was “not to be transported” and the “transport by P-gp” value (P-gp) was “not to be transported”. The “transport by BCRP” value (BCRP [11]) was “not to be transported”, the MRP2-dependent vesicular accumulation (MRP2 [12]) was “substrate of MRP2” and the “inhibition of BCRP-mediated transport of probe substrates” value (BCRP [13]) was “did not inhibit”. For the same molecule, the “inhibition of BSEP-mediated transport of probe substrates” value (BSEP) was “did not inhibit”, the “inhibition of MRP2-mediated transport of probe substrates” value (MRP2 [14]) was “did not inhibit” and the “inhibition of OCT1-mediated transport of probe substrates” value (OCT1 [15]) was “did not inhibit”. The “inhibition of OCT2-mediated transport of probe substrates” value (OCT2 [16]) was “did not inhibit”, the “inhibition of OAT1-mediated transport of probe substrates” value (OAT1 [17]) was “did not inhibit” and the “inhibition of OAT3-mediated transport of probe substrates” value (OAT3) was “did not inhibit”. The “inhibition of OATP1B3-mediated transport of probe substrates” value (OATP1B3 [18]) was “did not inhibit”, the “inhibition or induction of CYP-450s” value (CYP-450s) was “no inhibition or induction” and the CLtot [19] was 44.4 mL/min/kg. For the same molecule, the t½ [19] was 0.8 h, the CLtot [20] was 18.54 mL/min/kg and the t½ [20] was 3.73 h. The CLtot [21] was 28.5 mL/min/kg, the t½ [21] was 0.65 h and the CLtot [22] was 19.92 mL/min/kg. The t½ [22] was 0.75 h and the “fu (unbound fraction of drug in plasma)” value [23] was 19%.
In the case of `CCCN(CCC)S(=O)(=O)c1ccc(C(=O)O)cc1` [probenecid], the Ki (MRP2 [24]) is given as 44.6 µM.
